From patent publication US20090227619A1, “Harmine derivatives, intermediates used in their preparations, preparation processes and use therefo” (priority 2003, published 2009)
pIC50: −log10 of the molar value. Like-named read-outs stand apart in the source and are kept apart here.

Assays:
Lovo = assay: In vitro cytotoxicity, IC50 by MTT method, Lovo; type: cell-based; settings: Homo sapiens; Lovo, MTT; read-out: IC50
How it was run: (§1)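 Cells in RPMI1640 with 10% FBS at 37° C, 5% CO2 were seeded at 10^5/ml and exposed to a compound concentration gradient for 48 h, at least three replicates, solvent controls.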

Hela = assay: In vitro cytotoxicity, IC50 by MTT method, Hela; type: cell-based; settings: Homo sapiens; Hela, MTT; read-out: IC50
How it was run: as §1

PLA-801 = assay: In vitro cytotoxicity, IC50 by MTT method, PLA-801; type: cell-based; settings: PLA-801, MTT; read-out: IC50
How it was run: as §1

Lewis lung cancer = settings: Lewis lung cancer; for Body weight of the animals, end, First time / Body weight of the animals, end, Second time: ip × 10qd;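 for all read-outs here: mice implanted subcutaneously in the axilla with Lewis lung tumor cells, treated starting the following day, killed roughly three weeks after implantation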
NIH3T3 = assay: In vitro cytotoxicity, IC50 by MTT method, NIH3T3; type: cell-based; settings: Mus musculus; NIH3T3, MTT; read-out: IC50
How it was run: as §1

Kunming mice = settings: summary Table 34, compounds marked *, results [153] of the previous tests; in mg/kg; cited from earlier work
S180 sarcoma = settings: S180 sarcoma; for Body weight of the animals, beginning, First time / Body weight of the animals, end, First time / Inhibition rate, First time / Weight of the tumor X ± SD, First time / Body weight of the animals, beginning, Second time / Body weight of the animals, end, Second time / Inhibition rate, Second time: ip × 10qd
Bel-7402 = assay: In vitro cytotoxicity, IC50 by MTT method, Bel-7402; type: cell-based; settings: Homo sapiens, Bel-7402; BeI7402, MTT; read-out: IC50
How it was run: as §1

HepG2 = assay: In vitro cytotoxicity, IC50 by MTT method, HepG2; type: cell-based, human; settings: Homo sapiens; HepG2, MTT; read-out: IC50
How it was run: as §1

BGC-823 = assay: In vitro cytotoxicity, IC50 by MTT method, BGC-823; type: cell-based; settings: Homo sapiens, BGC-823; BGC823, MTT; read-out: IC50
How it was run: as §1

## O=C(O)c1cc2c(cn1)[nH]c1ccccc12 [Compound 17, β-carboline-3-carboxylic acid]
Lovo
  pIC50: 3.77
Hela
  pIC50: 3.66
PLA-801
  pIC50: 3.52
Lewis lung cancer; Dosage 50 (mg/ml)
  Body weight of the animals, end, First time: 25.4 g
  Body weight of the animals, end, Second time: 25.4 g
Lewis lung cancer; Dosage 50, ip × 10qd
  Body weight of the animals, beginning, First time: 19.2 g
  Inhibition rate, First time: 31.40%
  Weight of the tumor X ± SD, First time: 2.01 ± 0.28 g
  Body weight of the animals, beginning, Second time: 20.2 g
  Inhibition rate, Second time: 27.98%
  Weight of the tumor X ± SD, Second time: 1.75 ± 0.09 g
Lewis lung cancer; Dosage 100 (mg/ml)
  Body weight of the animals, end, First time: 24.8 g
  Body weight of the animals, end, Second time: 24.9 g
Lewis lung cancer; Dosage 100, ip × 10qd
  Body weight of the animals, beginning, First time: 19.0 g
  Inhibition rate, First time: 37.20%
  Weight of the tumor X ± SD, First time: 1.84 ± 0.48 g
  Body weight of the animals, beginning, Second time: 20.4 g
  Inhibition rate, Second time: 37.86%
  Weight of the tumor X ± SD, Second time: 1.51 ± 0.09 g
Lewis lung cancer; comparison table 43, in vivo
  Inhibition rate (%) Lewis cancer: 33.4%
NIH3T3
  pIC50: 4.22
Kunming mice
  LD50: 135.22
S180 sarcoma; Dosage 50 (mg/ml)
  Body weight of the animals, beginning, First time: 19.2 g
  Body weight of the animals, end, First time: 24.7 g
  Inhibition rate, First time: 23.97%
  Weight of the tumor X ± SD, First time: 2.03 ± 0.24 g
  Body weight of the animals, beginning, Second time: 18.5 g
  Body weight of the animals, end, Second time: 25.9 g
  Inhibition rate, Second time: 25.19%
S180 sarcoma; Dosage 50, ip × 10qd
  Weight of the tumor X ± SD, Second time: 2.02 ± 0.21 g
S180 sarcoma; Dosage 100 (mg/ml)
  Body weight of the animals, beginning, First time: 19.3 g
  Body weight of the animals, end, First time: 24.2 g
  Inhibition rate, First time: 35.21%
  Weight of the tumor X ± SD, First time: 1.73 ± 0.16 g
  Body weight of the animals, beginning, Second time: 18.6 g
  Body weight of the animals, end, Second time: 25.3 g
  Inhibition rate, Second time: 32.96%
S180 sarcoma; Dosage 100, ip × 10qd
  Weight of the tumor X ± SD, Second time: 1.81 ± 0.20 g
S180 sarcoma; comparison table 43, in vivo
  Inhibition rate (%) S180 sarcomata: 32.2%
Bel-7402
  pIC50: 3.64
HepG2
  pIC50: 3.55
BGC-823
  pIC50: 3.55
